One assay concerns the target T1, human DP1 receptor (Homo sapiens, UniProt Q13258).
T1 construct: tissue Biological Specialty Corporation; host or cells: human platelet membranes
T1 sequence (Q13258 1-359): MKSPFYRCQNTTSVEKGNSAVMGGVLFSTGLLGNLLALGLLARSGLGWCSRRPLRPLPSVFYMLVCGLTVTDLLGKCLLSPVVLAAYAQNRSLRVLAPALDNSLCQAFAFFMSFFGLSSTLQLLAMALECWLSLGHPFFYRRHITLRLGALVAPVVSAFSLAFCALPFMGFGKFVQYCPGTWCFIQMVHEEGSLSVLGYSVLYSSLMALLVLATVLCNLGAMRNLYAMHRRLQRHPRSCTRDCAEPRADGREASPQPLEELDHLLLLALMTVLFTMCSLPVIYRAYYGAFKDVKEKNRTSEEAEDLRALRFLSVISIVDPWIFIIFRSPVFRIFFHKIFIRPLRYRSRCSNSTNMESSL
The assay is described as follows: DP1 radioligand binding assay ([3H]BWA868C, platelet membranes). Particulars: [3H]BWA868C binding, human platelet membranes; read-out: hDP1. As for the experimental part:
The ability of a compound to bind to the human DPI receptor was evaluated via a radioligand membrane binding assay using the DP1 selective synthetic ligand [^311]BWA868C. Packed human platelets (Biological Specialty Corporation), were resuspended in 6 volumes of Hepes/HBSS buffer (10 mM Hepes, 1 mM DTT in Hanks Balanced Salt Solution (HBSS)), lysed and centrifuged at 75,000×g to pellet the membranes. Membranes were resuspended in Hepes/HBSS buffer to approximately 12 mg protein/ml. Membranes (20 μg protein/well) are incubated in 96-well plates with 2 nM [^3H]BWA868C and test compound in Assay Buffer (50 mM Hepes, 10 mM MnCl2, 1 mM EDTA, plus or minus 0.2% human serum albumin, pH 7.4) for 60 minutes at room temperature. The reactions are terminated by rapid filtration through Whatman GF/C glass fibre filter plates. The filter plates were pre-soaked in 0.33% polyethylenimine for 30 minutes at room temperature then washed in Wash Buffer (50 mM Hepes, 0.5 M NaCl pH 7.4) prior to harvesting. After harvesting, the filter plates are washed 3 times with 1 ml cold Wash Buffer then dried. Scintillant is then added to the plates and the radioactivity retained on the filters is determined on a Packard TopCount (Perkin Elmer). Specific binding is determined as total radioactive binding minus non-specific binding in the presence of 10 μM BW A868C. IC50s were determined using GraphPad prism analysis of drug titration curves.
On to `CCN(Cc1cc(C(F)(F)F)ccc1-c1cc(CC(=O)O)ccc1OC)C(=O)C(C)Oc1ccccc1` (stereo not shown) [Compound 1-45, (2′-{[Ethyl-(2-phenoxy-propionyl)-amino]-methyl}-6-methoxy-4′-trifluoromethyl-biphenyl-3-yl)-acetic acid], for which the IC50 is 1000 to 30000 nM.

With `CCN(Cc1cc(NC(C)=O)ccc1-c1cc(CC(=O)O)ccc1OC)C(=O)OCc1ccccc1` [Compound 1-153, {4′-Acetylamino-2′-[(benzyloxycarbonyl-ethyl-amino)-methyl]-6-methoxy-biphenyl-3-yl}-acetic acid], the IC50 lay in the range of 1000 to 30000 nM. For the molecule `O=C(O)CCn1c2c(c3ccccc31)C[C@H](NS(=O)(=O)c1ccc(F)cc1)CC2` [Ramatroban, reference compound], the IC50 is 1000 to 30000 nM. Regarding `CCN(Cc1cc(F)ccc1-c1cc(CC(=O)O)ccc1OC)C(=O)NCc1ccccc1` [Compound 1-187, [2′-(3-Benzyl-1-ethyl-ureidomethyl)-4′-fluoro-6-methoxy-biphenyl-3-yl]-acetic acid], the IC50 is 1000 to 30000 nM. The same measure, in the same setting: for `CCN(Cc1cc(C(F)(F)F)ccc1-c1cc(CC(=O)O)ccc1OC)C(=O)COC` [Compound 1-46, (2′-{[Ethyl-(2-methoxy-acetyl)-amino]-methyl}-6-methoxy-4′-trifluoromethyl-biphenyl-3-yl)-acetic acid] the value was 1000 to 30000 nM. Still for that read-out and setting: for `CC(=O)N(Cc1cc(C(F)(F)F)ccc1-c1cc(CC(=O)O)ccc1F)CC(F)(F)F` [Compound 1-11, (2′-{[Acetyl-(2,2,2-trifluoro-ethyl)-amino]-methyl}-6-fluoro-4′-trifluoromethyl-biphenyl-3-yl)-acetic acid] the value was 1000 to 30000 nM. Take `CCN(Cc1cc(C(F)(F)F)ccc1-c1cc(CC(=O)O)ccc1OC)C(=O)C(C)(C)Oc1ccc(Cl)cc1` [Compound 1-118, [2′-({[2-(4-Chloro-phenoxy)-2-methyl-propionyl]-ethyl-amino}-methyl)-6-methoxy-4′-trifluoromethyl-biphenyl-3-yl]-acetic acid]: the IC50 lay within 1000 to 30000 nM. Regarding `CCN(Cc1cc(C(F)(F)F)ccc1-c1cc(CC(=O)O)ccc1OC)C(=O)OC` [Compound 1-23, {2′-[(Ethyl-methoxycarbonyl-amino)-methyl]-6-methoxy-4′-trifluoromethyl-biphenyl-3-yl}-acetic acid], the IC50 lay in the range of 1000 to 30000 nM. With `CCN(Cc1cc(C(F)(F)F)ccc1-c1cc(CC(=O)O)ccc1OC)C(=O)C(F)(F)F` [Compound 1-32, (2′-{[Ethyl-(2,2,2-trifluoro-acetyl)-amino]-methyl}-6-methoxy-4′-trifluoromethyl-biphenyl-3-yl)-acetic acid], the IC50 was 1000 to 30000 nM.

`CCN(Cc1cc(C(F)(F)F)ccc1-c1cc(CC(=O)O)ccc1OC)C(=O)OCc1ccccc1Cl` [Compound 1-39, (2′-{[(2-Chloro-benzyloxycarbonyl)-ethyl-amino]-methyl}-6-methoxy-4′-trifluoromethyl-biphenyl-3-yl)-acetic acid]: the IC50 fell in the range of 1000 to 30000 nM. Consider `CCN(Cc1cc(C(F)(F)F)ccc1-c1cc(CC(=O)O)ccc1OC)C(=O)OCc1cccc(Cl)c1` [Compound 1-43, (2′-{[(3-Chloro-benzyloxycarbonyl)-ethyl-amino]-methyl}-6-methoxy-4′-trifluoromethyl-biphenyl-3-yl)-acetic acid], for which the IC50 lay in the range of 1000 to 30000 nM.

`CCN(Cc1cc(C(F)(F)F)ccc1-c1cc(CC(=O)O)ccc1OC)C(=O)NCc1cc(F)cc(F)c1` [Compound 1-178, {2′-[3-(3,5-Difluoro-benzyl)-1-ethyl-ureidomethyl]-6-methoxy-4′-trifluoromethyl-biphenyl-3-yl}-acetic acid]: the IC50 lay within 1000 to 30000 nM. As for `CCN(Cc1cc(C(F)(F)F)ccc1-c1cc(CC(=O)O)ccc1F)C(C)=O` [Compound 1-10, {2′-[(Acetyl-ethyl-amino)-methyl]-6-fluoro-4′-trifluoromethyl-biphenyl-3-yl}-acetic acid], the IC50 was in the range of 1000 to 30000 nM. The same measure, in the same setting: for `COc1ccc(CC(=O)O)cc1-c1ccc(C(F)(F)F)cc1CN(C(C)=O)C1CC1` [Compound 1-12, {2′-[(Acetyl-cyclopropyl-amino)-methyl]-6-methoxy-4′-trifluoromethyl-biphenyl-3-yl}-acetic acid] the value was 1000 to 30000 nM; for `CCN(Cc1cc(C(F)(F)F)ccc1-c1cc(CC(=O)O)ccc1OC)C(=O)N[C@@H](C)c1ccc(Cl)cc1` [Compound 1-180, (2′-{3-[(S)-1-(4-Chloro-phenyl)-ethyl]-1-ethyl-ureidomethyl}-6-methoxy-4′-trifluoromethyl-biphenyl-3-yl)-acetic acid], 1000 to 30000 nM.

As to `COc1ccc(CC(=O)O)cc1-c1ccc(C(F)(F)F)cc1CN(C(=O)OCc1ccccc1)C1CCC1` [Compound 1-34, {2′-[(Benzyloxycarbonyl-cyclobutyl-amino)-methyl]-6-methoxy-4′-trifluoromethyl-biphenyl-3-yl}-acetic acid], the IC50 was 1000 to 30000 nM.

A further assay addresses T2, human DP2 receptor (Homo sapiens, UniProt Q9Y5Y4).
T2 construct: expressed in transfected cells
T2 sequence (Q9Y5Y4 1-395): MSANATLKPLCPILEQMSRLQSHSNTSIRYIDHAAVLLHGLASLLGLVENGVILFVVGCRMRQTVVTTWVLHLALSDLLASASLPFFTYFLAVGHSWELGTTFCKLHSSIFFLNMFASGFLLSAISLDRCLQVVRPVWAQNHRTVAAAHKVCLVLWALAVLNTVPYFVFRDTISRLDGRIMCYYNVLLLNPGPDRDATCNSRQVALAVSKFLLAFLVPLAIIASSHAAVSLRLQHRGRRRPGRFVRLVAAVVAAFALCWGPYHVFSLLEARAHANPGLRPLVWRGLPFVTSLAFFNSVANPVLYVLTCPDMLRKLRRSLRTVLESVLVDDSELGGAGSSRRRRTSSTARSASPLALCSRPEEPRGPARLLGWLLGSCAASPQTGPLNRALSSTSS
The assay is described as follows: DP2/CRTH2 radioligand binding assay ([3H]PGD2). To be noted: [3H]PGD2 binding, membranes of HEK293 cells expressing human DP2; read-out: hDP2. As for the experimental part: The ability of a compound to bind to the human DP2 receptor is assessed via a radioligand binding assay using [^3H]PGD2. HEK293 cells stably expressing recombinant human DP2 are resuspended in 10 mM Hepes, 7.4 containing 1 mM DTT, lysed and centrifuged at 75,000×g to pellet the membranes. The membranes are resuspended in 10 mM Hepes, 7.4 containing 1 mM DTT and 10% glycerol to approximately 5 mg protein/ml. Membranes (2-10 μg protein/well) are incubated in 96-well plates with 1 nM [^3H]PGD2 and test compound in Assay Buffer (50 mM Hepes, 10 mM MnCl2, 1 mM EDTA, plus or minus 0.2% human serum albumin, pH 7.4) for 60 minutes at room temperature. The reactions are terminated by rapid filtration through Whatman GF/C glass fibre filter plates. The filter plates were pre-soaked in 0.33% polyethylenimine for 30 minutes at room temperature then washed in Wash Buffer (50 mM Hepes, 0.5 M NaCl pH 7.4) prior to harvesting. After harvesting, the filter plates are washed 3 times with 1 ml cold Wash Buffer then dried. Scintillant is then added to the plates and the radioactivity retained on the filters is determined on a Packard TopCount (Perkin Elmer). Specific binding is determined as total radioactive binding minus non-specific binding in the presence of 10 μM PGD2. IC50s were determined using GraphPad prism analysis of drug titration curves.
As for `CCOc1ccc(-c2ccc(-c3cc(CC(=O)O)ccc3OC)c(CN(CC)C(=O)c3ccccc3)c2)cn1` [Compound 1-254, [2′-[(Benzoyl-ethyl-amino)-methyl]-4′-(6-ethoxy-pyridin-3-yl)-6-methoxy-biphenyl-3-yl]-acetic acid], the IC50 was less than 300 nM. As for `CCN(Cc1cc(C(F)(F)F)ccc1-c1cc([C@@H](C)C(=O)N2C(=O)O[C@@H](c3ccccc3)[C@H]2C)cc(C(F)(F)F)c1)C(=O)C1CC1` [Compound 2-15, Cyclopropanecarboxylic acid ethyl-{3′-[(R)-1-methyl-2-((4R,5S)-4-methyl-2-oxo-5-phenyl-oxazolidin-3-yl)-2-oxo-ethyl]-4,5′-bis-trifluoromethyl-biphenyl-2-ylmethyl}-amide], the IC50 fell in the range of 1000 to 30000 nM.

On to `CCN(Cc1ccc(OC)cc1-c1cc(CC(=O)O)ccc1OC)C(=O)C1CC1` [Compound 1-196, {2′-[(Cyclopropanecarbonyl-ethyl-amino)-methyl]-6,5′-dimethoxy-biphenyl-3-yl}-acetic acid], for which the IC50 was less than 300 nM. Turning to `CCN(Cc1cc(C(F)(F)F)ccc1-c1cc([C@@H](C)C(=O)N[C@H](C)Cc2ccccc2)cc(C(F)(F)F)c1)C(=O)NCc1ccccc1` [Compound 2-10, (R)-2-[2′-(3-Benzyl-1-ethyl-ureidomethyl)-5,4′-bis-trifluoromethyl-biphenyl-3-yl]-N—((R)-1-methyl-2-phenyl-ethyl)-propionamide], the IC50 was more than 30000 nM. Same read-out and setting: for `CCN(Cc1cc(C(F)(F)F)ccc1-c1cc(Cl)cc(C(C)C(=O)O)c1)C(C)=O` (stereo not shown) [Compound 1-211, 2-{2′-[(Acetyl-ethyl-amino)-methyl]-5-chloro-4′-trifluoromethyl-biphenyl-3-yl}-propionic acid] the value was less than 300 nM; for `CCN(Cc1cc(C(F)(F)F)ccc1-c1cc([C@H](C)C(=O)N2C(=O)O[C@@H](c3ccccc3)[C@H]2C)cc(C(F)(F)F)c1)C(=O)C1CC1` [Compound 2-16, Cyclopropanecarboxylic acid ethyl-{3′-[(S)-1-methyl-2((4R,5S)-4-methyl-2-oxo-5-phenyl-oxazolidin-3-yl)-2-oxo-ethyl]-4,5′-bis-trifluoromethyl-biphenyl-2-ylmethyl}-amide], 1000 to 30000 nM.

These data come from patent publication US8067445B2, “N,N-disubstituted aminoalkylbiphenyl antagonists of prostaglandin D2 receptors” (Panmira Pharmaceuticals, LLC, priority 2008, dated 2011).
